Measured values reported in PMC11091978 (ACS Pharmacology & Translational Science, 2024).

Molecular target: NLRP3 (Homo sapiens, UniProt Q96P20)
Type: cell-based

Chain of NLRP3 (Q96P20 whole entry): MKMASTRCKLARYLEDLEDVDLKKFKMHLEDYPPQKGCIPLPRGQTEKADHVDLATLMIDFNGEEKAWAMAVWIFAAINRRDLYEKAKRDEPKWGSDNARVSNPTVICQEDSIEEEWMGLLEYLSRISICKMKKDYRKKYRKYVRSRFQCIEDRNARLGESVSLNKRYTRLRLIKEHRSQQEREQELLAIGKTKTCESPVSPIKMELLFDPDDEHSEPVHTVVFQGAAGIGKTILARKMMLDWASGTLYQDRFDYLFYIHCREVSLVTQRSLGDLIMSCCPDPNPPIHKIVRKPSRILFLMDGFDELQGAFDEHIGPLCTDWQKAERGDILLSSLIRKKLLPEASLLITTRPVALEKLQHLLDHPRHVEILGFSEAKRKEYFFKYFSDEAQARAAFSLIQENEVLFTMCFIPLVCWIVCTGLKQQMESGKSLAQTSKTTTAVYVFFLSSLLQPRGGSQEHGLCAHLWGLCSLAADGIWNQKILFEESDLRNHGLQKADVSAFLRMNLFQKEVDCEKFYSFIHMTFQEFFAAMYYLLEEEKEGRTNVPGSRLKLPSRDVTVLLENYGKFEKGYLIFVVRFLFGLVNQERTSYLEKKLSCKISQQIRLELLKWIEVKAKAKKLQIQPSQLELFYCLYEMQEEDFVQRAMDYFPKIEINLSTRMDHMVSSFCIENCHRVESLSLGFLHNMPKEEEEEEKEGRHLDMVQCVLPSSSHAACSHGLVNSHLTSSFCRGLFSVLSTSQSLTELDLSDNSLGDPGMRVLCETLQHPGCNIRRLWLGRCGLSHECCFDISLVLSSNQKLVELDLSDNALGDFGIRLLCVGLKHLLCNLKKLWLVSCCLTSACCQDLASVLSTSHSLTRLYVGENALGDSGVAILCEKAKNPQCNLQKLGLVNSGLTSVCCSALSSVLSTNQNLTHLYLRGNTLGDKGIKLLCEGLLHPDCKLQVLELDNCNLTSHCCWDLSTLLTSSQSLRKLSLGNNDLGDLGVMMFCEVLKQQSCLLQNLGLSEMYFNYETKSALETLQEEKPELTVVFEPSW

IC50: 0.011 µM
SMILES: Cn1cc(N(C[C@@H]2CCCO2)S(=O)(=O)NC(=O)Nc2c3c(cc4c2CCC4)CCC3)cn1 [NT-0249, [(1,2,3,5,6,7-hexahydro-s-indacen-4-yl)carbamoyl][(1-methyl-1H-pyrazol-4-yl)({[(2S)-oxolan-2-yl]methyl})sulfamoyl]azanide]
